14 compounds from US11420956B2, “Ureas having Androgen Receptor degradation activity and uses thereof” (ACCUTAR BIOTECHNOLOGY INC., priority 2019, dated 2022) can be followed below.

The term DC50 denotes the concentration at which degradation of the target reaches its halfway point. The low end stands for a more potent degrader, the high end for a less potent degrader.

The target of the assay is T1, androgen receptor (AR) (Homo sapiens, UniProt P10275, T878A).
T1 construct: endogenous in cells; host or cells: LNCAP
T1 sequence (P10275 1-920 T878A): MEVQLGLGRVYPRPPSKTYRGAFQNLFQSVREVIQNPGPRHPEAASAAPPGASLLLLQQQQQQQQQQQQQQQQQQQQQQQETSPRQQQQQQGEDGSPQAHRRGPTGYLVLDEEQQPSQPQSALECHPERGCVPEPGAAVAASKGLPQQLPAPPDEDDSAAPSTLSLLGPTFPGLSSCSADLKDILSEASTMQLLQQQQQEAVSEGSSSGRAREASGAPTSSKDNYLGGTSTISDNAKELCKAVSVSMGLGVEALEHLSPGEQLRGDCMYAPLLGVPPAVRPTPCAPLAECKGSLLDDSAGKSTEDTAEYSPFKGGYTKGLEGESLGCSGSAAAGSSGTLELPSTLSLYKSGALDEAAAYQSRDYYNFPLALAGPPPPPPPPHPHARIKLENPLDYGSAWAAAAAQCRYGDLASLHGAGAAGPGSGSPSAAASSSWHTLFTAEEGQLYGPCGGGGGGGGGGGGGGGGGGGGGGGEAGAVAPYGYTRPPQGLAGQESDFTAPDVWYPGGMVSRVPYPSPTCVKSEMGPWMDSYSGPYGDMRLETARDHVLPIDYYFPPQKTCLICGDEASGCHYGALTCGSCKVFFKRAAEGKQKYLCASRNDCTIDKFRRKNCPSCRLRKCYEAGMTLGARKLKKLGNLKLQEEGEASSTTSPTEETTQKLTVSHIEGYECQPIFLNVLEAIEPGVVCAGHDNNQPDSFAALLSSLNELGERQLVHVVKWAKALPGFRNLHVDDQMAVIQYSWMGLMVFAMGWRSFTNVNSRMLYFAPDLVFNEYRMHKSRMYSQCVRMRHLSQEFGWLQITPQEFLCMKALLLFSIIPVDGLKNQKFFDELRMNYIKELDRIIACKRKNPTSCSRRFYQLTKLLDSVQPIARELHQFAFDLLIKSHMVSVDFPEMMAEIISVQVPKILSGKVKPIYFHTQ
Nature of the assay: AR degradation in LNCAP cells (Western blot). Format: cell-based. The conditions noted are these: 24 hours after administration. As for the experimental part: LNCAP, VCAP and 22Rv1 cells were plated in 24-well plates at 1.5×10E5 cells/well in the RPMI growth medium containing 10% FBS and 1% Penicillin Streptomycin, and then incubated at 37° C. overnight. The following day, the test compound was administered to the cells by using 1000× compound stock solution prepared in DMSO at various concentrations. After administration of the compound, the cells were then incubated at 37° C. for 24 hours. Upon completion, the cells were washed with PBS and protein was collected in Laemmli sample buffer (1×; VWR International). Proteins in cell lysate were separated by SDS-PAGE and transferred to Odyssey nitrocellulose membranes (Licor) with iblot® dry blotting transfer system (ThermoFisher). Nonspecific binding was blocked by incubating membranes with Intercept Blocking Buffer (Licor) for 1 hour at room temperature with gentle shaking. The membranes were then incubated overnight at 4° C. with Primary antibodies rabbit anti-AR (1:1,000, Cell Signaling, 5153) and mouse anti-GAPDH (1:5,000, Santa Cruz Biotechnology, sc-47724) diluted in Intercept Blocking Buffer containing 0.1% Tween 20. After washing 3 times with TBS-T, the membranes were incubated with IRDye® […] goat anti-mouse IgG (1:20,000, Licor) or IRDye® […] goat anti-rabbit IgG (1:20,000, Licor) for 1 hour. After TBS-T washes, membranes were rinsed in TBS and scanned on Odyssey® CLx Imaging System (Licor). The bands were quantified using Image Studio™ Software (Licor).
Tables 5 and 6 summarize the androgen receptor (AR) degradative activity of exemplary compounds in LNCAP, VCAP and 22Rv1 cell lines 24 hours after administration. DC50: compound concentration needed for 50% target protein degradation.
In general terms: A western blot detects proteins with antibodies after separation by electrophoresis.
On to `C[C@@H]1CN(c2ccc(C#N)c(Cl)c2)[C@@H](C)CN1C(=O)Nc1ccc(N2CCC(CN3CCN(c4ccc5c(c4)CN([C@H]4CCC(=O)NC4=O)C5=O)CC3)CC2)c(F)c1` [Compound 1-46, (2R,5S)-4-(3-chloro-4-cyanophenyl)-N-(4-(4-((4-(2-((S)-2,6-dioxopiperidin-3-yl)-1-oxoisoindolin-5-yl)piperazin-1-yl)methyl)piperidin-1-yl)-3-fluorophenyl)-2,5-dimethylpiperazine-1-carboxamide], for which the DC50 is ≤ 10 nM.
`C[C@@H]1CN(c2ccc(C#N)c(Cl)c2)[C@@H](C)CN1C(=O)Nc1ccc(N2CCC(CN3CCN(c4ccc5c(c4)C(=O)N(C4CCC(=O)NC4=O)C5=O)CC3)CC2)c(F)c1` (stereo partly drawn) [Compound 1-47, (2R,5S)-4-(3-chloro-4-cyanophenyl)-N-(4-(4-((4-(2-(2,6-dioxopiperidin-3-yl)-1,3-dioxoisoindolin-5-yl)piperazin-1-yl)methyl)piperidin-1-yl)-3-fluorophenyl)-2,5-dimethylpiperazine-1-carboxamide]: the 50% degradation concentration (DC50) is ≤ 10 nM.
To `C[C@@H]1CN(c2ccc(C#N)c(C(F)(F)F)c2)[C@@H](C)CN1C(=O)Nc1cnc(N2CCC(CN3CCN(c4ccc5c(c4)CN([C@H]4CCC(=O)NC4=O)C5=O)CC3)CC2)nc1` [Compound 1-49, (2R,5S)-4-(4-cyano-3-(trifluoromethyl)phenyl)-N-(2-(4-((4-(2-((S)-2,6-dioxopiperidin-3-yl)-1-oxoisoindolin-5-yl)piperazin-1-yl)methyl)piperidin-1-yl)pyrimidin-5-yl)-2,5-dimethylpiperazine-1-carboxamide] belongs ≤ 10 nM.
Then `C[C@@H]1CN(c2ccc(C#N)c(C(F)(F)F)c2)[C@@H](C)CN1C(=O)Nc1ccc(N2CCC(CN3CCN(c4ccc5c(c4)CN([C@H]4CCC(=O)NC4=O)C5=O)CC3)CC2)c(F)c1` [Compound 1-50, (2R,5S)-4-(4-cyano-3-(trifluoromethyl)phenyl)-N-(4-(4-((4-(2-((S)-2,6-dioxopiperidin-3-yl)-1-oxoisoindolin-5-yl)piperazin-1-yl)methyl)piperidin-1-yl)-3-fluorophenyl)-2,5-dimethylpiperazine-1-carboxamide], with ≤ 10 nM; and `C[C@@H]1CN(c2ccc(C#N)c(Cl)c2)[C@@H](C)CN1C(=O)Nc1cnc(N2CCC(CN3CCN(c4ccc5c(c4)CN([C@H]4CCC(=O)NC4=O)C5=O)CC3)CC2)nc1` [Compound 1-51, (2R,5S)-4-(3-chloro-4-cyanophenyl)-N-(2-(4-((4-(2-((S)-2,6-dioxopiperidin-3-yl)-1-oxoisoindolin-5-yl)piperazin-1-yl)methyl)piperidin-1-yl)pyrimidin-5-yl)-2,5-dimethylpiperazine-1-carboxamide], with ≤ 10 nM.
For the compound `COc1cc(N2C[C@@H](C)N(C(=O)Nc3cnc(N4CCC(CN5CCN(c6ccc7c(c6)CN([C@H]6CCC(=O)NC6=O)C7=O)CC5)CC4)nc3)C[C@@H]2C)ccc1C#N` [Compound 1-52, (2R,5S)-4-(4-cyano-3-methoxyphenyl)-N-(2-(4-((4-(2-((S)-2,6-dioxopiperidin-3-yl)-1-oxoisoindolin-5-yl)piperazin-1-yl)methyl)piperidin-1-yl)pyrimidin-5-yl)-2,5-dimethylpiperazine-1-carboxamide], the 50% degradation concentration (DC50) was ≤ 10 nM.
For `C[C@@H]1CN(c2ccc(C#N)c(Cl)c2)[C@@H](C)CN1C(=O)Nc1ccc(N2CCC(CN3CCN(c4cc5c(cc4F)C(=O)N([C@H]4CCC(=O)NC4=O)C5=O)CC3)CC2)nc1` [Compound 1-54, (2R,5S)-4-(3-chloro-4-cyanophenyl)-N-(6-(4-((4-(2-(2,6-dioxopiperidin-3-yl)-6-fluoro-1,3-dioxoisoindolin-5-yl)piperazin-1-yl)methyl)piperidin-1-yl)pyridin-3-yl)-2,5-dimethylpiperazine-1-carboxamide], the DC50 is ≤ 10 nM.
Consider `COc1cc(N2C[C@@H](C)N(C(=O)Nc3ccc(N4CCC(CN5CCN(c6cc7c(cc6F)C(=O)N([C@H]6CCC(=O)NC6=O)C7)CC5)CC4)c(F)c3)C[C@@H]2C)ccc1C#N` [Compound 1-55, (2R,5S)-4-(4-cyano-3-methoxyphenyl)-N-(4-(4-((4-(2-((S)-2,6-dioxopiperidin-3-yl)-6-fluoro-1-oxoisoindolin-5-yl)piperazin-1-yl)methyl)piperidin-1-yl)-3-fluorophenyl)-2,5-dimethylpiperazine-1-carboxamide], for which the DC50 is ≤ 10 nM.
Then `C[C@@H]1CN(c2ccc(C#N)c(Cl)c2)[C@@H](C)CN1C(=O)Nc1ccc(N2CCC(CN3CCN(c4cc5c(cc4F)C(=O)N([C@H]4CCC(=O)NC4=O)C5)CC3)CC2)c(F)c1` [Compound 1-56, (2R,5S)-4-(3-chloro-4-cyanophenyl)-N-(4-(4-((4-(2-((S)-2,6-dioxopiperidin-3-yl)-6-fluoro-1-oxoisoindolin-5-yl)piperazin-1-yl)methyl)piperidin-1-yl)-3-fluorophenyl)-2,5-dimethylpiperazine-1-carboxamide], with ≤ 10 nM; and `C[C@@H]1CN(c2ccc(C#N)c3ncccc23)[C@@H](C)CN1C(=O)Nc1cnc(N2CCC(CN3CCN(c4ccc5c(c4)C(=O)N(C4CCC(=O)NC4=O)C5=O)CC3)CC2)nc1` (stereo partly drawn) [Compound 2-8, (2R,5S)-4-(8-cyanoquinolin-5-yl)-N-(2-(4-((4-(2-(2,6-dioxopiperidin-3-yl)-1,3-dioxoisoindolin-5-yl)piperazin-1-yl)methyl)piperidin-1-yl)pyrimidin-5-yl)-2,5-dimethylpiperazine-1-carboxamide], with > 100 nM.
Then `C[C@@H]1CN(c2ccc(C#N)c3ncccc23)[C@@H](C)CN1C(=O)Nc1ccc(N2CCC(CN3CCN(c4ccc5c(c4)C(=O)N(C4CCC(=O)NC4=O)C5=O)CC3)CC2)nc1` (stereo partly drawn) [Compound 2-9, (2R,5S)-4-(8-cyanoquinolin-5-yl)-N-(6-(4-((4-(2-(2,6-dioxopiperidin-3-yl)-1,3-dioxoisoindolin-5-yl)piperazin-1-yl)methyl)piperidin-1-yl)pyridin-3-yl)-2,5-dimethylpiperazine-1-carboxamide], with > 100 nM; and `C[C@@H]1CN(c2ccc(C#N)c3ncccc23)[C@@H](C)CN1C(=O)Nc1cnc(N2CCC(CN3CCN(c4ccc5c(c4)CN([C@H]4CCC(=O)NC4=O)C5=O)CC3)CC2)nc1` [Compound 2-10, (2R,5S)-4-(8-cyanoquinolin-5-yl)-N-(2-(4-((4-(2-((S)-2,6-dioxopiperidin-3-yl)-1-oxoisoindolin-5-yl)piperazin-1-yl)methy)piperidin-1-yl)pyrimidin-5-yl)-2,5-dimethylpiperazine-1-carboxamide], with > 100 nM.
Take `C[C@@H]1CN(c2ccc(C#N)c3ncccc23)[C@@H](C)CN1C(=O)Nc1ccc(N2CCC(CN3CCN(c4ccc5c(c4)CN([C@H]4CCC(=O)NC4=O)C5=O)CC3)CC2)nc1` [Compound 2-11, (2R,5S)-4-(8-cyanoquinolin-5-yl)-N-(6-(4-((4-(2-((S)-2,6-dioxopiperidin-3-yl)-1-oxoisoindolin-5-yl)piperazin-1-yl)methyl)piperidin-1-yl)pyridin-3-yl)-2,5-dimethylpiperazine-1-carboxamide]: the DC50 is > 100 nM.
To `C[C@@H]1CN(c2ccc(C#N)c3ncccc23)[C@@H](C)CN1C(=O)Nc1ccc(N2CCC(CN3CCN(c4ccc5c(c4)C(=O)N(C4CCC(=O)NC4=O)C5=O)CC3)CC2)c(F)c1` (stereo partly drawn) [Compound 2-12, (2R,5S)-4-(8-cyanoquinolin-5-yl)-N-(4-(4-((4-(2-(2,6-dioxopiperidin-3-yl)-1,3-dioxoisoindolin-5-yl)piperazin-1-yl)methyl)piperidin-1-yl)-3-fluorophenyl)-2,5-dimethylpiperazine-1-carboxamide] belongs > 100 nM.
